The values below come from patent publication US20060293307A1, “Oxazolidinone derivatives as antimicrobials” (priority 2002, published 2006).

This experiment deals with M. tuberculosis B-125. The experiment in a line: MIC against M. tuberculosis strains, agar dilution. In kind it is cell-based, Mycobacterium tuberculosis. Conditions: S. No. 11 Mt-, Middle Brook 7H10 + OADC, 37° C., 14-21 days. (In general: In agar dilution, organisms are placed on agar that contains the substance at set levels.)

Regarding `CC[C@H]1OC(=O)[C@H](C)[C@@H](O[C@H]2C[C@@](C)(OC)[C@@H](O)[C@H](C)O2)[C@H](C)[C@@H](O[C@@H]2O[C@H](C)C[C@H](N(C)C)[C@H]2O)[C@](C)(OC)C[C@@H](C)C(=O)[C@H](C)[C@@H](O)[C@]1(C)O` [CLA], the MIC (in general, the lowest concentration that inhibits growth of the organism) was 16 µg/mL.
As to `CCc1cc(C(N)=S)ccn1` [ETH], the MIC is 2.0 µg/mL.
In the case of `NNC(=O)c1ccncc1` [INH], the MIC is 0.06 µg/mL.
With `C[C@@H]1CN(c2c(F)c(N)c3c(=O)c(C(=O)O)cn(C4CC4)c3c2F)C[C@H](C)N1` [SPAR], the MIC result was “≦0.125 μg/ml”.
